Results on ten compounds are retold here after patent publication US20140023611A1 (priority 2010, published 2014).

A short description of series [1]: Determination of compound Cmax and AUC after oral gavage (plasma LC-MS/MS). The class given is in vivo, Sprague-Dawley rats. The note with it: Sprague-Dawley, rat, plasma, po, Structure (I) examples. The procedure, abridged: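 Plasma exposure measured by LC-MS/MS after acetonitrile precipitation with internal standard, quantified against a standard curve made in plasma. Compound given orally by gavage to Sprague-Dawley rats at nominal 2.5 or 10 mg/kg, with K2EDTA plasma sampled at 0.5, 1, 2 and 4 h.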

Series [2] is described as follows: Stability of compounds in simulated gastric fluid (SGF). The class given is in vitro ADME. The conditions noted are these: simulated gastric fluid (3 mg/mL pepsin), incubation time 6 hr, relative to t=0. The procedure, abridged: (§1)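 Compounds at […] were incubated 3 or 6 hr in USP simulated gastric fluid with 3 mg/mL pepsin or simulated intestinal fluid with 3 mg/mL pancreatin. Remaining compound was quantified by HPLC-UV or HPLC-MS peak area % and reported as percent of the t=0 level in the same medium.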

Series [3] can be described thus: Stability of compounds in simulated intestinal fluid (SIF). The conditions noted are these: simulated intestinal fluid (3 mg/mL pancreatin), incubation time 6 hr, relative to t=0. The class given is in vitro ADME. The procedure, abridged: as §1
The nature of series [4]: Fecal recovery of orally administered compounds. The conditions noted are these: Structure (I) examples, Table 16; rat, oral gavage, feces collected until 48 hr after dosing. The class given is in vivo, Sprague-Dawley rats. The method, boiled down:
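After oral dosing, feces collected in metabolic cages up to 48 h, lyophilized and ground. Duplicate weighed portions per animal extracted with organic solvent under non-compound-optimized conditions, so recovery may be a minimal estimate.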

Series [5] relates to 5/6 nephrectomy (5/6Nx) rat model of CKD. Briefly: In vivo evaluation procedure: CKD rats, drug in chow. The conditions noted are these: for FGF23 (serum FGF23 levels): ELISA. (In an ELISA, binding on a coated surface is turned into a signal by an enzyme label.)
Procedure: To assess the ability of selected example compounds to impact the progression of chronic kidney disease (CKD), 5/6 nephrectomy (5/6Nx) rat model of CKD was used. […] Upon arrival, the surgeries and extent of kidney damage in the animals were assessed by measuring serum creatinine, P, Ca, and BUN. Based on this analysis, rats with inconsistent kidney function were removed from the study and the remainder of the cohort was divided in to evenly stratified test groups. The remaining animals were then placed on the same synthetic diet used in the drug-in-chow studies (Example 350), except the P levels were adjusted to 0.9% P. Drugs are blended into this chow to achieve the required dosing rate. At this time, rats were also started on an activated Vitamin D regimen in which they were injected intraperitoneally with calcitriol at 80 ng/kg three times a week. Once a week, serum was collected via retro orbital bleeding for analysis of serum P and creatinine utilizing an ACE ALERA blood chemistry analyzer. […] Unless otherwise indicated, the data shown is from the serum collected at 2 weeks after initiation of the treatment regimen. In addition, for study #3, during the third week of the study, the animals were placed in metabolic cages for two days, and urine collected for the final 24 hours.
The subject of series [6] is Uptake of Phosphorus from the Intestine. In words: In vivo co-dosing in chow (urine P out / P consumed). The note with it: Rattus norvegicus, feed or water, rats, compound in chow, read-out: Mean % inhibition Urine Pout/P consumed; for inhibition in vivo at 120 mg/kg/day: mean drug dose 120 mg/kg/day; for inhibition in vivo at 100 mg/kg/day: mean drug dose 100 mg/kg/day. The method, boiled down:
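Male 7-week-old rats were fed a synthetic diet (0.6% P, 0.6% Ca) for 4 days, then housed in metabolic cages with compound in chow at 1.3 mg/g (nominal 100 mg/kg/day). Urinary P was measured by ion chromatography over 24–96 h and related to dietary P consumed. Percentage inhibition was calculated against no-drug controls.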

Series [7] is described as follows: Stability of compounds in simulated gastric and intestinal fluid. The class given is in vitro ADME. The conditions noted are these: Structure (V) examples, Table 3, 3 hr. As to the method: Test compounds were incubated at 1-20 μM in simulated gastric fluid (SGF; standard USP solution with 3 mg/mL pepsin) or simulated intestinal fluid (SIF; standard USP solution with 3 mg/mL pancreatin) for 3 hr or 6 hr. HPLC-UV or HPLC-MS were used to determine test compound levels using peak area %. Results (Table 5) were reported as the percentage of test compound remaining after incubation in a given condition relative to test compound present at t=0 in the same condition.
Test compounds were incubated at 1-20 μM in simulated gastric fluid (SGF; standard USP solution with 3 mg/mL pepsin) or simulated intestinal fluid (SIF; standard USP solution with 3 mg/mL pancreatin) for 3 hr. HPLC-UV or HPLC-MS were used to determine test compound levels using peak area %. Results (Table 3) were reported as the percentage of test compound remaining after incubation in a given condition relative to test compound present at t=0 in the same condition.

Where [8] appears, read: Table 15, actual oral dose 3-15 mg/kg, plasma 0.5-4 h.
Where [9] appears, read: Study 3, 5/6Nx rats, data at 3 weeks.

“And” between values parts separate entries of the source, which are not always exact repeats. Equal entries are not always repeated. Marks after values point to notes of the source that are not given here.

One may read the AUC as the area under the concentration-time curve, a measure of exposure. One may read the Cmax as the maximum level reached in the sampled fluid or tissue. With `CCN(CC)c1ccc(NC(=O)c2cccc(CSCCOCCOCCOCCOCCOCCOCCOCCOCCC(=O)O)c2)c(-c2cc(C(=O)NCc3cccc(C(F)(F)F)c3)ccn2)c1` [Example 166, 1-(3-(4-(diethylamino)-2-(4-(3-(trifluoromethyl)benzylcarbamoyl)pyridin-2-yl)phenylcarbamoyl)phenyl)-5,8,11,14,17,20,23,26-octaoxa-2-thianonacosan-29-oic acid], the AUC in series [1] (setting [8]) was under 10 ng·h/mL; in series [1] (Table 15, actual oral dose 15-40 mg/kg, plasma 0.5-4 h), under 50 ng·h/mL. In addition, the Cmax was under 10 ng/mL in series [1] (setting [8]) and over 50 ng/mL in series [1] (Table 15, plasma 0.5-4 h). Further, the “% remaining, SGF” value in series [2] is on record as over 80%. In addition, the “% remaining, SIF” value in series [3] is over 80%. Also, the “% recovered in feces” value in series [4] is over 80%. Moreover, the “Ser P (serum P)” value in series [5] (Study 2, 5/6Nx rats, 0.9% P diet + calcitriol, 2 weeks) was 11 mg/dL; in series [5] (setting [9]) it was 10^§ mg/dL. Moreover, the “Ser CRE (serum creatinine)” value in series [5] (Study 2, 5/6Nx rats, 2 weeks) is reported as 1.2 mg/dL; in series [5] (setting [9]) it was 1.0^§ mg/dL. For the same compound, the “FGF23 (serum FGF23 levels)” value in series [5] (Study 2, 5/6Nx rats, 2 weeks) was 100000 pg/mL; in series [5] (Study 3, 5/6Nx rats, data at 4 weeks) it was 1.2 × 10^5§§ pg/mL. In addition, the inhibition in vivo at 120 mg/kg/day in series [6] is 10 to 30%.
Turning to `O=C(O)CCOCCOCCOCCNC(=O)c1cccc2c1ccn2Cc1cccc(C(=O)Nc2ccc(N3CCCCC3)cc2-c2cc(C(=O)N[C@H]3CCCc4ccccc43)ccn2)c1` [Example 181, (S)-1-oxo-1-(1-(3-(4-(piperidin-1-yl)-2-(4-(1,2,3,4-tetrahydronaphthalen-1-ylcarbamoyl)pyridin-2-yl)phenylcarbamoyl)benzyl)-1H-indol-4-yl)-5,8,11-trioxa-2-azatetradecan-14-oic acid], in series [1] (setting [8]), the AUC is under 30 ng·h/mL and the Cmax is under 30 ng/mL. Besides, the “% remaining, SGF” value in series [2] is given as over 80%. For the same compound, the “% remaining, SIF” value in series [3] is over 80%. For the same compound, in series [4], the “% recovered in feces” value was over 80%. Also, the inhibition in vivo at 120 mg/kg/day in series [6] is at most 10%.
In series [1] (setting [8]), `CCN(CC)c1ccc(NC(=O)c2cccc(CSCCOCCOCCOCCOCCC(=O)O)c2)c(-c2cc(C(=O)NCc3cccc(C(F)(F)F)c3)ccn2)c1` [Example 162, 1-(3-(4-(diethylamino)-2-(4-(3-(trifluoromethyl)benzylcarbamoyl)pyridin-2-yl)phenylcarbamoyl)phenyl)-5,8,11,14-tetraoxa-2-thiaheptadecan-17-oic acid] had an area under the curve (AUC) of under 10 ng·h/mL and a Cmax of under 10 ng/mL. Also, the “% remaining, SGF” value in series [2] is reported as over 80%. The “% remaining, SIF” value in series [3] is over 80%. In addition, the “% recovered in feces” value in series [4] is 20-80%. For the same compound, the inhibition in vivo at 100 mg/kg/day in series [6] was in the range of 10 to 30%.
Turning to `CCCN(CCC)c1ccc(NC(=O)c2cccc(COCCOCCOCCOCCOCCOCCOCCOCCOC)c2)c(-c2cc(C(=O)NCc3cccc(C(F)(F)F)c3)ccn2)c1` [Example 200, 2-(2-(3-(2,5,8,11,14,17,20,23,26-nonaoxaheptacosyl)benzamido)-5-(dipropylamino)phenyl)-N-(3-(trifluoromethyl)benzyl)isonicotinamide], in series [1] (setting [8]), the AUC is under 30 ng·h/mL and the Cmax is under 30 ng/mL. Also, in series [2], the “% remaining, SGF” value is on record as over 80%. Also, the “% remaining, SIF” value in series [3] was over 80%. Besides, the “% recovered in feces” value in series [4] is on record as 20-80%. Besides, the inhibition in vivo at 100 mg/kg/day in series [6] is 10 to 30%.
In series [1] (setting [8]), `CCN(CC)c1ccc(NC(=O)c2cccc(CCCOCCOCCOCCOCCC(=O)O)c2)c(-c2cc(C(=O)NCc3cccc(C(F)(F)F)c3)ccn2)c1` [Example 251, 16-(3-(4-(diethylamino)-2-(4-(3-(trifluoromethyl)benzylcarbamoyl)pyridin-2-yl)phenylcarbamoyl)phenyl)-4,7,10,13-tetraoxahexadecan-1-oic acid] had an AUC of under 10 ng·h/mL and a Cmax of under 10 ng/mL. In series [2], the “% remaining, SGF” value is given as over 80%. Moreover, the “% remaining, SIF” value in series [3] is on record as over 80%. Moreover, in series [4], the “% recovered in feces” value is over 80%. In addition, the inhibition in vivo at 50 mg/kg/day in series [6] (mean drug dose 50 mg/kg/day) was at most 10%.
In series [1] (setting [8]), `CCN(CC)c1ccc(NC(=O)c2cccc(CSCCOCCOCCOCCOCCOCCOCCOCCOC)c2)c(-c2cc(C(=O)N[C@H]3CCCc4ccccc43)ccn2)c1` [Example 286, (S)-2-(2-(3-(2,5,8,11,14,17,20,23-octaoxa-26-thiaheptacosan-27-yl)benzamido)-5-(diethylamino)phenyl)-N-(1,2,3,4-tetrahydronaphthalen-1-yl)isonicotinamide] showed an AUC of under 10 ng·h/mL and a Cmax of under 10 ng/mL. The “% remaining, SGF” value in series [2] is over 80%. Further, the “% remaining, SIF” value in series [3] is over 80%. In addition, the “% recovered in feces” value in series [4] is reported as under 20%. Also, in series [6] (mean drug dose 130 mg/kg/day), the inhibition in vivo at 130 mg/kg/day fell in the range of 10 to 30%.
In series [1] (setting [8]), `CCN(CC)c1ccc(NC(=O)c2cccc(CSCCOCCOCCOCCOCCOCCOCCOCCOC)c2)c(-c2cc(C(=O)NCc3cccc(C(F)(F)F)c3)ccn2)c1` [Example 265, 2-(2-(3-(2,5,8,11,14,17,20,23-octaoxa-26-thiaheptacosan-27-yl)benzamido)-5-(diethylamino)phenyl)-N-(3-(trifluoromethyl)benzyl)isonicotinamide] returned an AUC of under 30 ng·h/mL and a Cmax of under 30 ng/mL. For the same compound, in series [2], the “% remaining, SGF” value is listed as over 80%. The “% remaining, SIF” value in series [3] is over 80%. For the same compound, the “% recovered in feces” value in series [4] is given as under 20%. Moreover, the inhibition in vivo at 120 mg/kg/day in series [6] was at most 10%.
Consider `CCN(CC)c1ccc(NC(=O)c2cccc(CSCCOCCOCCOCCOCCOCCOCCOCCOCCC(=O)O)c2)c(-c2cc(C(=O)N[C@H]3CCCc4ccccc43)ccn2)c1` [Example 161, (S)-1-(3-(4-(diethylamino)-2-(4-(1,2,3,4-tetrahydronaphthalen-1-ylcarbamoyl)pyridin-2-yl)phenylcarbamoyl)phenyl)-5,8,11,14,17,20,23,26-octaoxa-2-thianonacosan-29-oic acid], for which, in series [1] (setting [8]), the AUC was under 10 ng·h/mL and the Cmax is under 10 ng/mL. In addition, the “% remaining, SGF” value in series [2] is listed as over 80%. In addition, in series [3], the “% remaining, SIF” value is on record as over 80%. Also, in series [4], the “% recovered in feces” value is over 80%. Further, in series [6], the inhibition in vivo at 120 mg/kg/day was at most 10%.
As for `O=C(NCCN1CCOCC1)c1cccc(C(=O)Nc2ccc(N3CCCCC3)cc2C(=O)N/N=C/c2ccc(Cl)c(C(F)(F)F)c2)c1` [Ex. 53, (E)-N^1-(2-(2-(4-chloro-3-(trifluoromethyl)benzylidene)hydrazinecarbonyl)-4-(piperidin-1-yl)phenyl)-N3-(2-morpholinoethyl)isophthalamide], in series [7] (simulated gastric fluid), the “% remaining, SGF” value is recorded as 6%. Also, the “% remaining, SIF” value in series [7] (simulated intestinal fluid) is 107%.
Consider `CCN(CC)c1ccc(NC(=O)c2cccc(CCCOCCOCCOCCOCCOCCOCCOCCOCCOC)c2)c(-c2cc(C(=O)N[C@H]3CCCc4ccccc43)ccn2)c1` [Example 261, (S)-2-(2-(3-(2,5,8,11,14,17,20,23,26-nonaoxanonacosan-29-yl)benzamido)-5-(diethylamino)phenyl)-N-(1,2,3,4-tetrahydronaphthalen-1-yl)isonicotinamide], for which, in series [1] (setting [8]), the AUC was over 50 ng·h/mL and the Cmax was under 50 ng/mL. The “% remaining, SGF” value in series [2] was over 80%. In addition, in series [3], the “% remaining, SIF” value was 60-80% and >80%. For the same compound, the “% recovered in feces” value in series [4] is recorded as under 20%. Also, the “Ser P (serum P)” value in series [5] (Study 1, 5/6Nx rats, 0.9% P diet + calcitriol, 2 weeks) amounted to 9.7 mg/dL. Also, in series [5] (Study 1, 5/6Nx rats, 2 weeks), the “Ser CRE (serum creatinine)” value is 1.0 mg/dL and the “FGF23 (serum FGF23 levels)” value is recorded as >15,000 pg/mL. Further, in series [6], the inhibition in vivo at 100 mg/kg/day is 10 to 30%.
